Converted amounts (≈) assume the structure as drawn. The source made the active and inactive calls.

The target of data set [1] is T1, Phosphotyrosine protein phosphatase (Mycobacterium tuberculosis) (UniProt A0A045ISB3).
T1 sequence (whole entry): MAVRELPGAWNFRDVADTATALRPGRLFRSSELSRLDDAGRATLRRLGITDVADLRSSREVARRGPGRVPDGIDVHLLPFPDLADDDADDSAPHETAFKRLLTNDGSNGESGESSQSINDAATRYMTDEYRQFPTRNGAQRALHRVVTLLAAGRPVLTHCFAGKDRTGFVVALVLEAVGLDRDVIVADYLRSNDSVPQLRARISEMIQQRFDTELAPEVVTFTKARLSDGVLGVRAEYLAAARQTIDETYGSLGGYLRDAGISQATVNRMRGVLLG
Put plainly: Binding affinity to Mycobacterium tuberculosis PtpB assessed as sequence coverage level at 100 uM preincubated for 10 mins before trypsin addition by mass spectrometry based peptide mass fingerprint assay (reference value: 92%).

In data set [2] the target is T2, Low molecular weight protein-tyrosine phosphatase A (Mycobacterium tuberculosis, UniProt P9WIA1).
T2 sequence (P9WIA1 whole entry): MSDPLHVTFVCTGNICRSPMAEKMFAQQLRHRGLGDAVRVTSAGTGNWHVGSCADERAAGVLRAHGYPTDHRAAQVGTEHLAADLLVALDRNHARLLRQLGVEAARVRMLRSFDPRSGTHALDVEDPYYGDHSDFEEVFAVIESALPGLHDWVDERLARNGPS
Put plainly: Inhibition of Mycobacterium tuberculosis PtpA using p-nitrophenyl phosphate as substrate preincubated for 10 mins followed by substrate addition measured every minute for 10 mins by UV-VIS spectrophotometric analysis.

Data set [3] concerns the target T3, Tyrosine-protein phosphatase non-receptor type 22 (Homo sapiens, UniProt Q9Y2R2).
T3 sequence (Q9Y2R2 whole entry): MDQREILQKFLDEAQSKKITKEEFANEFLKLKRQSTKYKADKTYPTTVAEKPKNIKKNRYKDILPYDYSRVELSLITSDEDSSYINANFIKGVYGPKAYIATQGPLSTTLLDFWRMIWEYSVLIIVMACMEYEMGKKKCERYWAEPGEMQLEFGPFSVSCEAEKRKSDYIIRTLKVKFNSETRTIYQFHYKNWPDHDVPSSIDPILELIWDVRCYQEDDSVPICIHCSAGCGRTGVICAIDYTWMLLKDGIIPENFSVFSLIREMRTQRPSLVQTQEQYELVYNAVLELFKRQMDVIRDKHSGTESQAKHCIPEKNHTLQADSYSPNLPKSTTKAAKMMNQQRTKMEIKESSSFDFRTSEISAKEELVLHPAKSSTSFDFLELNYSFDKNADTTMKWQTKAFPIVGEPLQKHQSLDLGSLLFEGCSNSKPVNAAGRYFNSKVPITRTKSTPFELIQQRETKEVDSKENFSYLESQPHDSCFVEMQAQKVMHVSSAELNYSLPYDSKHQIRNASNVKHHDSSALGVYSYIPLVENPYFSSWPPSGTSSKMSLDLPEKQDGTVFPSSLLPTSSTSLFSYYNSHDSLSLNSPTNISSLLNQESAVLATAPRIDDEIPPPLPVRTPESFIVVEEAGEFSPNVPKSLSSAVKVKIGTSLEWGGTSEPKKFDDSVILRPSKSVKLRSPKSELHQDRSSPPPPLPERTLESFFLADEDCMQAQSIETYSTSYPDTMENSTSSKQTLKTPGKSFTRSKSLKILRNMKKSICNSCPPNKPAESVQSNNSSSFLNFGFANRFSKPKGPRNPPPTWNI
Nature of the data set: Inhibition of LYP (unknown origin) using p-nitrophenyl phosphate as substrate preincubated for 10 mins followed by substrate addition measured every minute for 10 mins by UV-VIS spectrophotometric analysis.

The target of data set [4] is T4, Phosphotyrosine protein phosphatase (Mycobacterium tuberculosis, UniProt A0A045ISB3).
T4 sequence (A0A045ISB3 whole entry): T1 sequence (whole entry)
Nature of the data set: Inhibition of Mycobacterium tuberculosis PtpB using p-nitrophenyl phosphate as substrate preincubated for 10 mins followed by substrate addition measured every minute for 10 mins by Michaelis-Menten plot analysis.

Data set [5] has as its system Mycobacterium tuberculosis. Put plainly: Antitubercular activity against Mycobacterium tuberculosis H37Ra ATCC 25177 after 7 days by resazurin microtiter assay. Format: functional. To be noted: H37Ra ATCC 25177, 168 h. For orientation: Alamar Blue is a resazurin reagent that responds to reducing activity.
The nature of data set [6]: Cytotoxicity against human THP1 cells after 72 hrs by MTT assay. Type of data set: cell-based. The conditions noted are these: THP-1 cells.
The target in data set [7] is T1, Phosphotyrosine protein phosphatase (Mycobacterium tuberculosis). Put plainly: Binding affinity to Mycobacterium tuberculosis PtpB assessed as binding constant by fluorescence based assay.
For data set [8], the target named is T5, Tyrosine-protein phosphatase non-receptor type 12 (Homo sapiens, UniProt Q05209).
T5 sequence (Q05209 whole entry): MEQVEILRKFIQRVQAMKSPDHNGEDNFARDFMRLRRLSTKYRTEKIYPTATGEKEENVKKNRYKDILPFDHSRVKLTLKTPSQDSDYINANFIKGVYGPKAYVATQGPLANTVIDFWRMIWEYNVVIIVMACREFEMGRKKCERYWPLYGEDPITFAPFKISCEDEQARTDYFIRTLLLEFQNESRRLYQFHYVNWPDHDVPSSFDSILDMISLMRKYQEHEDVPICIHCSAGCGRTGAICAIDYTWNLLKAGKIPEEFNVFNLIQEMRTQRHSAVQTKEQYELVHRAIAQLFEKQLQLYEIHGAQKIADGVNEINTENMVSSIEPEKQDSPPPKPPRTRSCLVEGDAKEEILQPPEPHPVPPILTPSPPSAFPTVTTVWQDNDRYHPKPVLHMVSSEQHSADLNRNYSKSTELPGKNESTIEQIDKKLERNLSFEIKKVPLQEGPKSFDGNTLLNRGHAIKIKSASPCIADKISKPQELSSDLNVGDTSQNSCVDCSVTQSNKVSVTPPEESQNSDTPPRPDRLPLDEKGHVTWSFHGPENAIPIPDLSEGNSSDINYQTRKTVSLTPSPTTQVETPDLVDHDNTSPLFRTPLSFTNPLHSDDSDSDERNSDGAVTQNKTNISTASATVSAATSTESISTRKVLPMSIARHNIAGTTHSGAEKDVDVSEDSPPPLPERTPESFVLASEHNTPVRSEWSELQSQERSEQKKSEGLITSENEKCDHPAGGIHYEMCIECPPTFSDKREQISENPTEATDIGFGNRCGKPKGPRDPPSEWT
Put plainly: Inhibition of PTP-PEST (unknown origin) using p-nitrophenyl phosphate as substrate preincubated for 10 mins followed by substrate addition measured every minute for 10 mins by UV-VIS spectrophotometric analysis.

For data set [9], the target named is T4, Phosphotyrosine protein phosphatase. Put plainly: Binding affinity to Mycobacterium tuberculosis PtpB by UV-VIS spectrophotometric analysis.
Data set [10] deals with T1, Phosphotyrosine protein phosphatase (Mycobacterium tuberculosis). Nature of the data set: Time independent inhibition of Mycobacterium tuberculosis PtpB at 0.2 uM pre-incubated for 0 to 10 mins before p-nitrophenyl phosphate substrate addition.
Data set [11] concerns the target T4, Phosphotyrosine protein phosphatase. Nature of the data set: Binding affinity to Mycobacterium tuberculosis PtpB by fluorescence based assay.

In general, IC50 refers to the midpoint of a concentration-inhibition curve. In general, Ki refers to the dissociation constant of the complex between target and ligand, obtained from inhibition or displacement. A lower Ki goes with tighter binding. Usually MIC stands for the smallest concentration in the dilution series that meets the test's criterion for growth inhibition. A word on the CC50: it is the concentration that lowers cell viability or growth by half. A higher CC50 goes with better tolerance by the cells. Broadly, the Kd is the free concentration of one partner at which half of the binding sites on the other are occupied at equilibrium, for simple one-to-one binding. A high value points to a looser complex. Turning to `CC(C)=CCc1c(-c2ccc(O)cc2O)oc2c([C@@H]3C=C(C)C[C@H](c4ccc(O)cc4O)[C@H]3C(=O)c3ccc(O)cc3O)c(O)cc(O)c2c1=O`, in data set [1], the Activity came to 90%. Also, the IC50 in [2] is 5890 nM; in data set [3], 18500 nM; in data set [8] it was 12400 nM. In [4], this compound showed a Ki of 390 nM. Also, in [5], it took 32 µg/mL (≈ 46.2 µM) to inhibit growth (MIC). The compound further returned a CC50 at 72 h in data set [6] of 33.8 µg/mL (≈ 48.8 µM). In addition, the Ka in data set [7] amounted to 1.4 ×10⁶ /M. For the same compound, the figures for the Kd in data set [9] and in data set [11] were 1000 nM and 700 nM, respectively. Besides, the inhibition entry in [10] was “Active”.
On to `CC(C)=CCc1c(O)ccc(C(=O)[C@@H]2[C@@H](c3ccc(O)cc3O)CC(C)=C[C@H]2c2c(O)cc(O)c3c(=O)c(CC=C(C)C)c(-c4ccc(O)cc4O)oc23)c1O`, for which the Activity in data set [1] was 93%. Also, the values for the IC50 in data set [2], in [3] and in data set [8] were 1490 nM, 11800 nM and 5220 nM, respectively. The Ki in [4] stood at 200 nM. The same compound showed an MIC in data set [5] of 32 µg/mL (≈ 42.1 µM). The compound also registered a CC50 at 72 h in data set [6] of 20.2 µg/mL (≈ 26.6 µM). Also, the Ka in data set [7] is 1.2 ×10⁶ /M. The Kd came to 1000 nM in [9] and 850 nM in data set [11]. Moreover, the inhibition result in data set [10] was “Active”.

The values are drawn from ChEMBL document CHEMBL4251612, “Naturally occurring Diels-Alder-type adducts from Morus nigra as potent inhibitors of Mycobacterium tuberculosis protein tyrosine phosphatase B” (Eur J Med Chem, 2018).
